Calls of active or inactive are those of the source. The calls are words filed in the database; no cut-off is given here.
Assays:
U2OS [1] = assay: Induction of apoptosis in human U2OS cells assessed as late apoptotic cells at 4 uM measured after 48 hrs annexin-V and propidium iodide staining based flow cytometry analysis (reference value: 5.94%); format: functional
[2] = Acute toxicity in mouse assessed as change in weight of kidney at 30 to 90 mg/kg, po single dose measured for 7 days; format: organism-based; settings: in vivo, 168 h, dose 30-90 mg/kg, time 7 day
MG-63 [3] = assay: Induction of DNA damage response in human MG-63 cells assessed as telomere dysfunction by measuring telomere length shortening at 2 to 4 uM by Immunofluorescence based FISH assay; format: functional, cell-based; settings: dose 2-4 µM
MG-63 [4] = assay: Antitumor activity against human MG-63 cells xenografted in female BALB/c mouse model assessed as incomplete nuclei appearance in tumor tissue treated via oral gavage administered once a day for 3 weeks by HE staining analysis; format: functional, cell-based; settings: dose 10-60 mg/kg
U2OS [5] = assay: Induction of DNA damage response in human U2OS cells assessed as reduction in TRF2 expression by measuring accumulation of telomere-free ends at 2 to 4 uM by FITC/DAPI based Quantitative FISH (Q-FISH) assay; format: functional, cell-based; settings: dose 2-4 µM
MG-63 [6] = assay: Induction of apoptosis in human MG-63 cells assessed as necrotic cells at 4 uM measured after 48 hrs annexin-V and propidium iodide staining based flow cytometry analysis (reference value: 0.52%); format: functional
MG-63 [7] = assay: Antitumor activity against human MG-63 cells xenografted in female BALB/c mouse model assessed as tumour growth suppression at 10 to 60 mg/kg, via oral gavage administered once a day for 3 weeks; format: functional, organism-based; settings: dose 10-60 mg/kg
[8] = Acute toxicity in mouse assessed as change in weight of spleen at 30 to 90 mg/kg, po single dose measured for 7 days; format: organism-based; settings: in vivo, 168 h, dose 30-90 mg/kg, time 7 day
U2OS [9] = assay: Induction of apoptosis in human U2OS cells assessed as necrotic apoptotic cells at 2 uM measured after 48 hrs annexin-V and propidium iodide staining based flow cytometry analysis (reference value: 2.46%); format: functional
U2OS [10] = assay: Induction of DNA damage in human U2OS cells assessed as increase in 53BP1 foci by Immunofluorescence based FISH assay; format: functional, cell-based; settings: dose 2-4 µM
[11] = Acute toxicity in mouse assessed as alanine aminotransferase level (ALT) level in serum at 30 to 90 mg/kg, po single dose measured for 7 days; format: organism-based; settings: in vivo, 168 h, dose 30-90 mg/kg, time 7 day
U2OS [12] = assay: Antiproliferative activity against human U2OS cells assessed as reduction in cell viability incubated for 48 hrs by MTT assay; format: functional, cell-based
[13] = Toxicity in female BALB/c mouse model xenografted with human MG-63 cells assessed as drug tolerance at 10 to 60 mg/kg, via oral gavage administered once a day for 3 weeks; format: organism-based; settings: in vivo, 504 h, dose 10-60 mg/kg
MG-63 [14] = assay: Antitumor activity against human MG-63 cells xenografted in female BALB/c mouse model assessed as downregulation of TRF2 in tumor treated via oral gavage administered once a day for 3 weeks by IHC analysis; format: functional, cell-based; settings: dose 10-60 mg/kg
MG-63 [15] = assay: Antiproliferative activity against human MG-63 cells assessed as reduction in cell viability at 2 to 4 uM measured for 8 days by PDL assay; format: functional, cell-based; settings: dose 2-4 µM, time 8.0 day
[16] = Acute toxicity in mouse assessed as change in weight of lung at 30 to 90 mg/kg, po single dose measured for 7 days; format: organism-based; settings: in vivo, 168 h, dose 30-90 mg/kg, time 7 day
[17] = Acute toxicity in mouse assessed as effect on body weight at 30 to 90 mg/kg, po single dose measured for 7 days; format: organism-based; settings: in vivo, 168 h, dose 30-90 mg/kg, time 7 day
U2OS [18] = assay: Induction of apoptosis in human U2OS cells assessed as viable cells at 4 uM measured after 48 hrs annexin-V and propidium iodide staining based flow cytometry analysis (reference value: 89.2%); format: functional; settings: read-out: Activity
MG-63 [19] = assay: Inhibition of TRF2 expression in human MG-63 cells by co-immunoprecipitation based Western blot analysis; format: functional, cell-based
MG-63 [20] = assay: Antiproliferative activity against human MG-63 cells assessed as reduction in cell viability incubated for 48 hrs by MTT assay; format: functional, cell-based; settings: MG-63, 48 h
MG-63 [21] = assay: Induction of apoptosis in human MG-63 cells assessed as early apoptotic cells at 4 uM measured after 48 hrs annexin-V and propidium iodide staining based flow cytometry analysis (reference value: 0.66%); format: functional
[22] = Acute toxicity in mouse assessed as change in weight of heart at 30 to 90 mg/kg, po single dose measured for 7 days; format: organism-based; settings: in vivo, 168 h, dose 30-90 mg/kg, time 7 day
U2OS [23] = assay: Antiproliferative activity against human U2OS cells assessed as reduction in cell viability at 2 to 4 uM measured for 8 days by PDL assay; format: functional, cell-based; settings: dose 2-4 µM, time 8.0 day
U2OS [24] = assay: Induction of apoptosis in human U2OS cells assessed as reduction in TRF2 foci at 2 to 4 microM by Immunofluorescence based FISH assay; format: functional, cell-based; settings: dose 2-4 µM
U2OS [25] = assay: Induction of apoptosis in human U2OS cells assessed as reduction in colocalization of TRF2 with telomere at 2 to 4 microM by Immunofluorescence based FISH assay; format: functional, cell-based; settings: dose 2-4 µM
MG-63 [26] = assay: […] inhibition of TRF2 expression in human MG-63 cells at 4 uM measured upto 12 hrs measured after drug washout by Western blot analysis; format: functional, cell-based
[27] = biological target: T1, Telomeric repeat-binding factor 2 (Homo sapiens) (UniProt Q15554); assay: Induction of thermal stabilization of TRF2 TRFH domain in human MG-63 cells at 46 to 55 degC incubated for 4 hrs by cellular thermal shift assay (CESTA) based Western blot analysis; format: cell-based
T1 sequence (whole entry): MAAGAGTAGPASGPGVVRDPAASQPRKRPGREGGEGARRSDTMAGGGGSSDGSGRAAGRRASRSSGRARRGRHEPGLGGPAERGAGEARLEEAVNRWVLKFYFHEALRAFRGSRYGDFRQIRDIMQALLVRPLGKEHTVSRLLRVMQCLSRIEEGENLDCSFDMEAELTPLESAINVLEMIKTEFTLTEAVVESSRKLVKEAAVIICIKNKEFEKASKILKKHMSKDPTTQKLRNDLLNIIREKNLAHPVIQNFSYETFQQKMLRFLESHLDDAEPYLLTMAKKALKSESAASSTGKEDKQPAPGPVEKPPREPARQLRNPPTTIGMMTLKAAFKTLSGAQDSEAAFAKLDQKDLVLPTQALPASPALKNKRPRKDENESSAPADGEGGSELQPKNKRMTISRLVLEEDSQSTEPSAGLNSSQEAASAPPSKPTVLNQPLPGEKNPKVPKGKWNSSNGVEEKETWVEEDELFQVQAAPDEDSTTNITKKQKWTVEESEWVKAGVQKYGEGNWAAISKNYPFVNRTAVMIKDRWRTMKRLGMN

U2OS [28] = assay: Inhibition of TRF2 expression in human U2OS cells by co-immunoprecipitation based Western blot analysis; format: functional, cell-based
[29] = Toxicity in female BALB/c mouse model xenografted with human MG-63 cells assessed as effect on body weight at 10 to 60 mg/kg, via oral gavage administered once a day for 3 weeks; format: organism-based; settings: in vivo, 504 h, dose 10-60 mg/kg
MG-63 [30] = assay: Induction of apoptosis in human MG-63 cells assessed as viable cells at 2 uM measured after 48 hrs annexin-V and propidium iodide staining based flow cytometry analysis (reference value: 90.7%); format: functional; settings: read-out: Activity
MG-63 [31] = assay: Antitumor activity against human MG-63 cells xenografted in female BALB/c mouse model assessed as nucleocytoplasmic separation in tumor tissue treated via oral gavage administered once a day for 3 weeks by HE staining analysis; format: functional, cell-based; settings: dose 10-60 mg/kg

Q: Which Activity (U2OS [1]) does the source give for `COc1cc(OC)c(C(=O)/C=C/c2cccc(Br)c2)c(OC)c1` here?
A: 16.3%

Q: And the Activity [2]?
A: Non-toxic

Q: And the Activity (MG-63 [3])?
A: Dose-dependent-effect

Q: What about the Activity (MG-63 [4]) of the same compound?
A: Dose-dependent-effect

Q: And the Activity (U2OS [5])?
A: Active

Q: And the Activity (MG-63 [6])?
A: 5.47%

Q: What about the Activity (MG-63 [7]) of the same compound?
A: Active; Stronger Than Control Drugs

Q: What about the Activity [8] of the same compound?
A: Non-toxic

Q: What about the Activity (U2OS [9]) of the same compound?
A: 1.18%

Q: And the Activity (U2OS [10])?
A: Dose-dependent-effect

Q: What about the Activity [11] of the same compound?
A: Non-toxic

Q: What about the IC50 (U2OS [12]) of the same compound?
A: 5.28 µM

Q: And the Activity [13]?
A: Non-toxic

Q: What about the Activity (MG-63 [14]) of the same compound?
A: Dose-dependent-effect

Q: And the Activity (MG-63 [15])?
A: Active

Q: What about the Activity [16] of the same compound?
A: Non-toxic

Q: What about the Activity [17] of the same compound?
A: Non-toxic

Q: And the viability at 4 µM (U2OS [18])?
A: 52.2%

Q: And the inhibition (MG-63 [19])?
A: Active

Q: What about the IC50 (MG-63 [20]) of the same compound?
A: 1.52 µM

Q: What about the Activity (MG-63 [21]) of the same compound?
A: 15.2%

Q: And the Activity [22]?
A: Non-toxic

Q: And the Activity (U2OS [23])?
A: Active

Q: And the Activity (U2OS [24])?
A: Active

Q: What about the Activity (U2OS [25]) of the same compound?
A: Active

Q: And the Activity (MG-63 [26])?
A: Active; Returned To Control Levels Within 4 Hrs

Q: What about the Activity [27] of the same compound?
A: Active

Q: And the inhibition (U2OS [28])?
A: Active

Q: And the Activity [29]?
A: Non-toxic

Q: And the viability at 2 µM (MG-63 [30])?
A: 47.9%

Q: And the Activity (MG-63 [31])?
A: Dose-dependent-effect; Significant Than Control

— ChEMBL document CHEMBL6153097, “Design, synthesis, and biological evaluation of Flavokavain B derivatives as potent TRF2 inhibitors for the treatment of Osteosarcoma” (Eur J Med Chem, 2025)
